# Reference: PubChem BioAssay (NCI)
#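 The concentration for 50% growth inhibition is given as GI50. TGI is the concentration that stops growth completely.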
# Tests used:
# Test in all cases: DTP human tumour cell line panel, 384-well format
# OVCAR-5 ovarian = test system: OVCAR-5 ovarian
# SK-OV-3 ovarian = test system: SK-OV-3 ovarian
# A498 renal = test system: A498 renal
# SNB-75 CNS = test system: SNB-75 CNS
# NCI-H226 lung = test system: NCI-H226 lung
# HCT-15 colon = test system: HCT-15 colon
# PC-3 prostate = test system: PC-3 prostate
# NCI-H23 lung = test system: NCI-H23 lung
# T-47D breast = test system: T-47D breast
# MOLT-4 leukemia = test system: MOLT-4 leukemia
# COLO 205 colon = test system: COLO 205 colon
# SNB-19 CNS = test system: SNB-19 CNS
# NCI-H522 lung = test system: NCI-H522 lung
compound,measurement,setting,value
O=C(Nc1cccc(NS(=O)(=O)c2ccc(F)cc2)c1)c1ccc(-c2ccccc2)cc1,GI50,OVCAR-5 ovarian,7.57 µM
same,TGI,OVCAR-5 ovarian,26.7 µM
same,GI50,SK-OV-3 ovarian,5.43 µM
same,TGI,SK-OV-3 ovarian,28.3 µM
same,GI50,A498 renal,4.4 µM
same,TGI,A498 renal,16.8 µM
same,GI50,SNB-75 CNS,5.65 µM
same,TGI,SNB-75 CNS,25.1 µM
same,GI50,NCI-H226 lung,5.91 µM
same,TGI,NCI-H226 lung,20.7 µM
same,GI50,HCT-15 colon,4.05 µM
same,TGI,HCT-15 colon,19.5 µM
same,GI50,PC-3 prostate,3.36 µM
same,TGI,PC-3 prostate,11.5 µM
same,GI50,NCI-H23 lung,2.53 µM
same,TGI,NCI-H23 lung,8.44 µM
same,GI50,T-47D breast,2.03 µM
same,TGI,T-47D breast,9.91 µM
same,GI50,MOLT-4 leukemia,1.81 µM
same,TGI,MOLT-4 leukemia,3.64 µM
same,GI50,COLO 205 colon,4.33 µM
same,TGI,COLO 205 colon,17.2 µM
same,GI50,SNB-19 CNS,4.04 µM
same,TGI,SNB-19 CNS,21.7 µM
same,GI50,NCI-H522 lung,3.6 µM
same,TGI,NCI-H522 lung,15.2 µM
